Results reported in the supplement of paper PMC11061612.

Legend:
AZD0156 = compound: CN(C)CCCOc1ccc(-c2ccc3ncc4c(c3c2)n(C2CCOCC2)c(=O)n4C)cn1 [AZD0156]; settings: max 3 µM
Method in brief: (§1)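 Cancer cell lines were seeded into 1536-well plates in 7.5 μl medium (DMEM/F12 or RPMI, 10% FBS), held 24 hours at 37°C and 5% CO2, and dosed for 72 hours with final DMSO typically 0.2%. Luminescence from CellTiter-Glo 2.0, scaled between blank-well and DMSO-well means, served as viability. The single-agent IC50 was obtained from dose-response fits with a non-linear mixed effects model, each fit being a two-parameter logistic curve.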

Savolitinib = compound: C[C@@H](c1ccc2nccn2c1)n1nnc2ncc(-c3cnn(C)c3)nc21 [Savolitinib]; settings: max 1 µM
Method in brief: as §1

Gemcitabine = compound: Nc1ccn([C@@H]2O[C@H](CO)[C@@H](O)C2(F)F)c(=O)n1 [Gemcitabine]; settings: max 0.3 µM
Method in brief: as §1

Etoposide = compound: COc1cc([C@@H]2c3cc4c(cc3[C@@H](O[C@@H]3O[C@@H]5CO[C@@H](C)O[C@H]5[C@H](O)[C@H]3O)[C@H]3COC(=O)[C@H]23)OCO4)cc(OC)c1O [Etoposide]; settings: max 10 µM
Method in brief: as §1

AZD5363 = compound: C1CN(CCC1(C(=O)N[C@@H](CCO)C2=CC=C(C=C2)Cl)N)C3=NC=NC4=C3C=CN4 [AZD5363]; settings: max 10 µM
Method in brief: as §1

AZD1390 = compound: CC(C)n1c(=O)n(C)c2cnc3cc(F)c(-c4ccc(OCCCN5CCCCC5)nc4)cc3c21 [AZD1390]; settings: max 0.3 µM
Method in brief: as §1

AZD5153 = compound: COc1nnc2ccc(N3CCC(c4ccc(OCCN5CCN(C)C(=O)[C@H]5C)cc4)CC3)nn12 [AZD5153]; settings: max 1 µM
Method in brief: as §1

AZD4320 = compound: CN(CC[C@H](CSC1=CC=CC=C1)NC2=C(C=C(C=C2)S(=O)(=O)NC(=O)C3=CC=C(C=C3)N4CCC(CC4)[C@H](C5=CC=CC=C5C6=CC=C(C=C6)Cl)O)S(=O)(=O)C(F)(F)F)CCO [AZD4320]; settings: max 1 µM
Method in brief: as §1

Palbociclib = compound: CC(=O)c1c(C)c2cnc(Nc3ccc(N4CCNCC4)cn3)nc2n(C2CCCC2)c1=O [Palbociclib]; settings: max 10 µM
Method in brief: as §1

AZD6738 = compound: C[C@@H]1COCCN1C2=NC(=NC(=C2)C3(CC3)[S@](=N)(=O)C)C4=C5C=CNC5=NC=C4 [AZD6738]; settings: max 10 µM
Method in brief: as §1

SRA737 = compound: N#Cc1cnc(Nc2cc(NC[C@H]3CNCCO3)c(C(F)(F)F)cn2)cn1 [SRA737]; settings: max 10 µM
Method in brief: as §1

SG3199 = compound: CC1=CN2[C@@H](C1)C=NC3=CC(=C(C=C3C2=O)OC)OCCCCCOC4=C(C=C5C(=C4)N=C[C@@H]6CC(=CN6C5=O)C)OC [SG3199]; settings: max 0.001 µM
Method in brief: as §1

Olaparib = compound: O=C(c1cc(Cc2n[nH]c(=O)c3ccccc23)ccc1F)N1CCN(C(=O)C2CC2)CC1 [Olaparib]; settings: max 10 µM
Method in brief: as §1

5-Fluorouracil = compound: O=c1[nH]cc(F)c(=O)[nH]1 [5-Fluorouracil]; settings: max 20 µM
Method in brief: as §1

Lapatinib = compound: CS(=O)(=O)CCNCc1ccc(-c2ccc3ncnc(Nc4ccc(OCc5cccc(F)c5)c(Cl)c4)c3c2)o1 [Lapatinib]; settings: max 10 µM
Method in brief: as §1

Gefitinib = compound: COc1cc2ncnc(Nc3ccc(F)c(Cl)c3)c2cc1OCCCN1CCOCC1 [Gefitinib]; settings: max 10 µM
Method in brief: as §1

Selumetinib = compound: Cn1cnc2c(F)c(Nc3ccc(Br)cc3Cl)c(C(=O)NOCCO)cc21 [Selumetinib]; settings: max 10 µM
Method in brief: as §1

AZD5991 = compound: Cc1c2c(nn1C)CSCc1cc(n(C)n1)CSc1cc(c3ccccc3c1)OCCCc1c(C(=O)O)n(C)c3c-2c(Cl)ccc13 [AZD5991]; settings: max 1 µM
Method in brief: as §1

Doxorubicin = compound: COc1cccc2c1C(=O)c1c(O)c3c(c(O)c1C2=O)C[C@@](O)(C(=O)CO)C[C@@H]3O[C@H]1C[C@H](N)[C@H](O)[C@H](C)O1 [Doxorubicin]; settings: max 1 µM
Method in brief: as §1

Paclitaxel = compound: CC(=O)O[C@H]1C(=O)[C@@]2(C)[C@H]([C@H](OC(=O)c3ccccc3)[C@]3(O)C[C@H](OC(=O)[C@H](O)[C@@H](NC(=O)c4ccccc4)c4ccccc4)C(C)=C1C3(C)C)[C@]1(OC(C)=O)CO[C@@H]1C[C@@H]2O [Paclitaxel]; settings: max 3 µM
Method in brief: as §1

Crizotinib = compound: C[C@@H](Oc1cc(-c2cnn(C3CCNCC3)c2)cnc1N)c1c(Cl)ccc(F)c1Cl [Crizotinib]; settings: max 10 µM
Method in brief: as §1

MK-2206 = compound: NC1(c2ccc(-c3nc4ccn5c(=O)[nH]nc5c4cc3-c3ccccc3)cc2)CCC1 [MK-2206]; settings: max 10 µM
Method in brief: as §1

Dasatinib = compound: CC1=C(C(=CC=C1)Cl)NC(=O)C2=CN=C(S2)NC3=CC(=NC(=N3)C)N4CCN(CC4)CCO [Dasatinib]; settings: max 2 µM
Method in brief: as §1

Carboplatin = compound: C1CC(C1)(C(=O)[O-])C(=O)[O-].N.N.[Pt+2] [Carboplatin]; settings: max 10 µM
Method in brief: as §1

AZD7648 = compound: Cc1cc2ncnn2cc1Nc1ncc2c(n1)n(C1CCOCC1)c(=O)n2C [AZD7648]; settings: max 10 µM
Method in brief: as §1

Taselisib = compound: Cc1nc(-c2cn3c(n2)-c2ccc(-c4cnn(C(C)(C)C(N)=O)c4)cc2OCC3)n(C(C)C)n1 [Taselisib]; settings: max 10 µM
Method in brief: as §1

Prexasertib = compound: COc1cccc(OCCCN)c1-c1cc(Nc2cnc(C#N)cn2)n[nH]1 [Prexasertib]; settings: max 1 µM
Method in brief: as §1

AZD1775 = compound: C=CCn1c(=O)c2cnc(Nc3ccc(N4CCN(C)CC4)cc3)nc2n1-c1cccc(C(C)(C)O)n1 [AZD1775]; settings: max 3 µM
Method in brief: as §1

SN-38 = compound: CCc1c2c(nc3ccc(O)cc13)-c1cc3c(c(=O)n1C2)COC(=O)[C@]3(O)CC [SN-38]; settings: max 0.3 µM
Method in brief: as §1

Alisertib = compound: COc1cc(Nc2ncc3c(n2)-c2ccc(Cl)cc2C(c2c(F)cccc2OC)=NC3)ccc1C(=O)O [Alisertib]; settings: max 10 µM
Method in brief: as §1

Venetoclax = compound: CC1(C)CCC(CN2CCN(c3ccc(C(=O)NS(=O)(=O)c4ccc(NCC5CCOCC5)c([N+](=O)[O-])c4)c(Oc4cnc5[nH]ccc5c4)c3)CC2)=C(c2ccc(Cl)cc2)C1 [Venetoclax]; settings: max 1 µM
Method in brief: as §1

AZD2811 = compound: CCN(CCO)CCCOc1ccc2c(Nc3cc(CC(=O)Nc4cccc(F)c4)[nH]n3)ncnc2c1 [AZD2811]; settings: max 1 µM
Method in brief: as §1

[1] = compound: O=C(Nc1ccc2[nH]nc(-c3ccncc3)c2c1)[C@@H]1CCN(CC(=O)N2CCN(c3ccc(-c4ncccn4)cc3)CC2)C1; settings: max 5 µM
Method in brief: as §1

AZD8186 = compound: C[C@@H](Nc1cc(F)cc(F)c1)c1cc(C(=O)N(C)C)cc2c(=O)cc(N3CCOCC3)oc12 [AZD8186]; settings: max 10 µM
Method in brief: as §1

Trametinib = compound: CC(=O)Nc1cccc(-n2c(=O)n(C3CC3)c(=O)c3c(Nc4ccc(I)cc4F)n(C)c(=O)c(C)c32)c1 [Trametinib]; settings: max 1 µM
Method in brief: as §1

Cell Line | IC50, cell viability 72 h (AZD0156) [nM] | IC50, cell viability 72 h (Savolitinib) [nM] | IC50, cell viability 72 h (Gemcitabine) [nM] | IC50, cell viability 72 h (Etoposide) [nM] | IC50, cell viability 72 h (AZD5363) [nM] | IC50, cell viability 72 h (AZD1390) [nM] | IC50, cell viability 72 h (AZD5153) [nM] | IC50, cell viability 72 h (AZD4320) [nM] | IC50, cell viability 72 h (Palbociclib) [nM] | IC50, cell viability 72 h (AZD6738) [nM] | IC50, cell viability 72 h (SRA737) [nM] | IC50, cell viability 72 h (SG3199) [nM] | IC50, cell viability 72 h (Olaparib) [nM] | IC50, cell viability 72 h (5-Fluorouracil) [nM] | IC50, cell viability 72 h (Lapatinib) [nM] | IC50, cell viability 72 h (Gefitinib) [nM] | IC50, cell viability 72 h (Selumetinib) [nM] | IC50, cell viability 72 h (AZD5991) [nM] | IC50, cell viability 72 h (Doxorubicin) [nM] | IC50, cell viability 72 h (Paclitaxel) [nM] | IC50, cell viability 72 h (Crizotinib) [nM] | IC50, cell viability 72 h (MK-2206) [nM] | IC50, cell viability 72 h (Dasatinib) [nM] | IC50, cell viability 72 h (Carboplatin) [nM] | IC50, cell viability 72 h (AZD7648) [nM] | IC50, cell viability 72 h (Taselisib) [nM] | IC50, cell viability 72 h (Prexasertib) [nM] | IC50, cell viability 72 h (AZD1775) [nM] | IC50, cell viability 72 h (SN-38) [nM] | IC50, cell viability 72 h (Alisertib) [nM] | IC50, cell viability 72 h (Venetoclax) [nM] | IC50, cell viability 72 h (AZD2811) [nM] | IC50, cell viability 72 h [1] [nM] | IC50, cell viability 72 h (AZD8186) [nM] | IC50, cell viability 72 h (Trametinib) [nM]
HDLM-2 (Hodgkin's Lymphoma) | > 3000 | > 1000 | > 300 | 6080 | > 10000 | > 300 | 936 | 82.6 | > 10000 | > 10000 | > 10000 | > 1 | > 10000 | > 20000 | > 10000 | > 10000 | > 10000 | 119 | > 1000 | 27.4 | > 10000 | > 10000 | > 2000 | > 10000 | > 10000 | > 10000 | 504 | 387 | 206 | > 10000 | > 1000 | > 1000 | > 5000 | > 10000 | > 1000
HMV-II (Melanoma) | > 3000 | > 1000 | 139 | > 10000 | > 10000 | > 300 | 463 | > 1000 | > 10000 | > 10000 | > 10000 | > 1 | > 10000 | > 20000 | > 10000 | > 10000 | 606 | > 1000 | 790 | 310 | > 10000 | > 10000 | > 2000 | > 10000 | > 10000 | 5060 | > 1000 | 1160 | 127 | > 10000 | > 1000 | > 1000 | 502 | > 10000 | 8.78
HO-1-u-1 (Oral Cavity Carcinoma) | > 3000 | > 1000 | > 300 | > 10000 | 1310 | > 300 | > 1000 | > 1000 | > 10000 | 3160 | 6170 | > 1 | > 10000 | > 20000 | 7600 | > 10000 | > 10000 | > 1000 | > 1000 | 820 | > 10000 | > 10000 | 532 | > 10000 | > 10000 | 618 | 28.8 | 816 | 239 | 6330 | > 1000 | > 1000 | 4140 | > 10000 | > 1000
